Where two headings read alike, the source gives them in different places.
Assays:
[1] = Microsomal stability assay, human liver microsomes;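 note: pooled human liver microsomes at 0.25 mg/mL with 1 µM compound and NADPH at 37 °C, pH 7.4, for 30 min, unchanged parent quantified by LC-MS/MS against the 0 min sample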
[2] = molecular target: CYP2D6 (Homo sapiens, UniProt P10635); assay: CYP2D6 inhibition assay (bufuralol, pooled human liver microsomes)
[3] = molecular target: Beta Secretase enzyme (BACE) (Homo sapiens, UniProt P56817); assay: In vitro enzymatic BACE FRET (fluorescence resonance energy transfer) assay; assay type: biochemical;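 note: fluorescence read after 1 h with 50 nM quenched peptide substrate spanning the BACE cleavage site, in pH 4.2 acetate buffer containing 10% DMSO and nonionic detergent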
[4] = test system: Aβ40 in conditioned medium of cells stably expressing Amyloid Precursor Protein (APP); assay: In vitro BACE cell-based assay (Aβ40 in conditioned medium, sandwich ELISA); details: Homo sapiens;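 note: compounds added as a dilution series, secreted peptide quantified by europium time-resolved fluorescence readout, potency fitted from percent of control versus compound concentration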
[5] = Microsomal stability assay, rat liver microsomes;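 note: rat liver microsomes (0.25 mg/mL) with about 1 µM compound plus 1 mM NADPH, pH 7.4, 37 °C for 30 min, parent left measured by LC-MS/MS against 0 min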
[6] = molecular target: CYP3A4 (CYP3A) (Homo sapiens, UniProt P08684); assay: in vitro; details: microsomes, pH 7.4;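 note: inhibition of CYP3A-mediated 1-hydroxymidazolam formation after 10 min incubation with NADPH, quantified by HPLC MS relative to metabolite produced without test compound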
[7] = 2D6 IC50 (uM), CYP enzyme inhibition
[8] = BACE enzyme assay, IC50's in uM, read-out: BACE1 FRET assay
[9] = HEK293, HEK cell-based assay, IC50's in uM, read-out: HEK cell assay
[10] = BACE enzyme assay, read-out: BACE1 FRET assay
[11] = HEK293, HEK cells, read-out: HEK cell assay
[12] = 2D6 IC50, CYP enzyme inhibition
[13] = Table 2, read-out: BACE1 FRET assay
[14] = HEK293, Table 2, HEK cells, read-out: HEK cell assay
[15] = HEK293, cell-based assay, HEK cells, IC50's in uM, read-out: HEK cell assay

CYP2D6, sequence (P10635 whole entry): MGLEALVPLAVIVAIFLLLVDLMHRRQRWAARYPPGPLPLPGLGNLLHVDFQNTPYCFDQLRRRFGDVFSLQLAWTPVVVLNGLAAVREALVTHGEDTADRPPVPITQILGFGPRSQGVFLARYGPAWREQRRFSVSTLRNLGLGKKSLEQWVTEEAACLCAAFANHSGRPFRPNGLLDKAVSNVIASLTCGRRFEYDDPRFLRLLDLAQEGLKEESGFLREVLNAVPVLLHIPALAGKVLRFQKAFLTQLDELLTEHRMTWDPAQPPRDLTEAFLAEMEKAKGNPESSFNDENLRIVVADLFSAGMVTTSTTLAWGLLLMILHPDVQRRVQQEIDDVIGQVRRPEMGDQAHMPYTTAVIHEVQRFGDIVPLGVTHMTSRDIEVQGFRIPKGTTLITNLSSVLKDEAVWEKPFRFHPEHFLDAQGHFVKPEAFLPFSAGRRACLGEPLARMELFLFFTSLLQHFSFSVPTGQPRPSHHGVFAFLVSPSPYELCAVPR
Beta Secretase enzyme (BACE), sequence (P56817 46-501): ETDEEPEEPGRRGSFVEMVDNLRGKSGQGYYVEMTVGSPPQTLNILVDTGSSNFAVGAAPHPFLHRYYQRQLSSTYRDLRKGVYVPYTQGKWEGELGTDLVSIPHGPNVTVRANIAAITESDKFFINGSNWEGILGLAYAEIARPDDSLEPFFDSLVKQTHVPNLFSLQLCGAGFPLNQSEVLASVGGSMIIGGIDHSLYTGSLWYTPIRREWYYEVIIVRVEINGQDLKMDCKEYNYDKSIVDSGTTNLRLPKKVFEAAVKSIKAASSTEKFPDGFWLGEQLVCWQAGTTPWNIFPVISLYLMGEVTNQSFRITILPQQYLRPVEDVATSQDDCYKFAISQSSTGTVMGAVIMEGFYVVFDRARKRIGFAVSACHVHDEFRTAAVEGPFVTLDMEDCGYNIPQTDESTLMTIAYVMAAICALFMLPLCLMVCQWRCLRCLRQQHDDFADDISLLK
CYP3A4 (CYP3A), sequence (P08684 2-503): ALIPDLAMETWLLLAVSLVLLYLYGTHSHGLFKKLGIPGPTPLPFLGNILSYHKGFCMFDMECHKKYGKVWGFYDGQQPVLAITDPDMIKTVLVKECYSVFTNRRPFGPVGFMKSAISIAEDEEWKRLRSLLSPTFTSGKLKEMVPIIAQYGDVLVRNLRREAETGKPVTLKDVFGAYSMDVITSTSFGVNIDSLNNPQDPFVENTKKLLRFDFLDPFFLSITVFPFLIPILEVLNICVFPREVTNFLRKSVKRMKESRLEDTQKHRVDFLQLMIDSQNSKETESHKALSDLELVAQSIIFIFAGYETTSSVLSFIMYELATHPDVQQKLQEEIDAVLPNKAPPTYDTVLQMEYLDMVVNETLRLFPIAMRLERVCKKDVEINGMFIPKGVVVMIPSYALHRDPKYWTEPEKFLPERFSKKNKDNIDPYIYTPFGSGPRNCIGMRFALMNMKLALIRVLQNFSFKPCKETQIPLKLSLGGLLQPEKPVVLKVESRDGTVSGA

| SMILES | HLM ([1]; human liver microsomal data) [µL/min/mg] | IC50 [2, 7] [µM] | IC50 [3, 8] [µM] | IC50 [4, 9] [µM] | RLM ([5]; rat liver microsomal data) [µL/min/mg] | IC50 [6] [nM] | IC50 [3, 10] [µM] | IC50 [4, 11] [µM] | IC50 [2, 12] [µM] | IC50 [3, 13] [µM] | IC50 [4, 14] [µM] | HLM ([1]; human liver microsomes) [µL/min/mg] | IC50 ([2]; 2D6 IC50, CYP2D6 inhibition) [µM] | IC50 ([3]; read-out: BACE1 FRET assay (IC50)) [µM] | IC50 ([4]; HEK293, HEK cells, read-out: HEK cell assay (IC50)) [µM] | RLM ([5]; rat liver microsomes) [µL/min/mg] | IC50 [4, 15] [µM] |
| --- | --- | --- | --- | --- | --- | --- | --- | --- | --- | --- | --- | --- | --- | --- | --- | --- | --- |
| C#Cc1cnc2c(c1)[C@@H](NC[C@@H](O)[C@H](Cc1cc(F)cc(-c3nccs3)c1)NC(=O)COC)CC1(CCC1)O2 [compound 766] | 70 | 1.4 | 0.055 | 0.272 | 64 | 200 |  |  |  |  |  |  |  |  |  |  |  |
| CC(C)(C)Cc1cnc2c(c1)[C@@H](NC[C@@H](O)[C@H](Cc1ccc(F)cc1)NC(=O)[C@H]1CN(Cc3cscn3)CCO1)CC1(CCC1)O2 [compound 774] | 111 | 5.3 | 0.017 | 0.006 | 57 | 200 |  |  |  |  |  |  |  |  |  |  |  |
| COCC(=O)N[C@@H](Cc1ccc(F)cc1)[C@H](O)CN[C@H]1CC2(CCC2)Oc2c1cc(CC(C)(C)C)nc2C#N [compound 493] | 95 | 11.6 |  |  | 221 | 600 | 0.044 | 0.471 |  |  |  |  |  |  |  |  |  |
| CC(=O)N[C@@H](C[C@H]1CCOC1)[C@H](O)CN[C@H]1CC2(CCC2)Oc2ncc(CC(C)(C)C)cc21 [compound 469] | 60 |  |  |  | 35 | 16400 |  |  | ≥ 27 | 0.137 | 0.162 |  |  |  |  |  |  |
| COCC(=O)N[C@@H](Cc1ccccc1)[C@H](O)CN[C@H]1CC2(CCC2)Oc2c1cc(CC(C)C)cc2-n1ccnc1 [compound 546] | 75 | 3.8 |  |  | 267 | 100 | 0.025 | 0.033 |  |  |  |  |  |  |  |  |  |
| CC(=O)N[C@@H](Cc1ccc(F)c(-c2ccncc2)c1)[C@H](O)CN[C@H]1CC2(CCC2)Oc2ncc(CC(C)(C)C)cc21 [compound 602] |  |  |  |  |  | 160 |  |  |  |  |  | 124 | 0.4 | 0.023 | 0.018 | 78 |  |
| COCC(=O)N[C@@H](Cc1cc(Br)cc(-c2nccs2)c1)[C@H](O)CN[C@H]1CC2(CCC2)Oc2ncc(CC(C)(C)C)cc21 [compound 851] | 71 |  | 0.013 |  | 59 | 200 |  |  | 0.7 |  |  |  |  |  |  |  | 0.057 |
| CO[C@H](C)C(=O)N[C@@H](Cc1cc(F)cc(-c2nccs2)c1)[C@H](O)CN[C@H]1CC2(CCC2)Oc2ncc(C#CC3CC3)cc21 [compound 880] | 71 |  | 21 |  | 107 | 300 |  |  | 0.3 |  |  |  |  |  |  |  | 0.063 |
| CC(=O)C(C)(C)C(=O)N[C@@H](Cc1ccc2c(c1)OCO2)[C@H](O)CN[C@H]1CC2(CCC2)Oc2ncc(CC(C)(C)C)cc21 [compound 457] | 44 |  |  |  | 90 | 100 |  |  | 2.4 | 0.792 | 0.905 |  |  |  |  |  |  |
| CC(C)(C)Cc1cnc2c(c1)[C@@H](NC[C@@H](O)[C@H](Cc1ccc(F)cc1)NC=O)CC1(CCC1)O2 [compound 540] | 264 | 2.3 |  |  | 347 | 1200 | 0.014 | 0.074 |  |  |  |  |  |  |  |  |  |
| COCC(=O)N[C@@H](Cc1cccc(F)c1)[C@H](O)CN[C@@H]1CC2(CCC2)Oc2c1cc(CC(C)(C)C)nc2-n1ccnc1 [compound 502] | 54 | 0.8 |  |  | 158 | 100 | 2 | 1.85 |  |  |  |  |  |  |  |  |  |
| COCC(=O)N[C@@H](Cc1cc(F)cc(-c2nccs2)c1)[C@H](O)CN[C@H]1CC2(CCC2)Oc2ccc(CC(C)C)cc21 [compound 771, N-((1S,2R)-1-(3-fluoro-5-(1,3-thiazol-2-yl)benzyl)-2-hydroxy-3-(((4S)-6-(2-methylpropyl)-3,4-dihydrospiro[chromene-2,1′-cyclobutan]-4-yl)amino)propyl)-2-methoxyacetamide] | 150 | 0.5 | 0.005 | 0.04 | 201 | 700 |  |  |  |  |  |  |  |  |  |  |  |
